From US20250134870A1, “PATHWAY MODULATOR, PHARMACEUTICAL COMPOSITION HAVING SAME, USE THEREOF, AND THERAPEUTIC METHOD USING SAME” (Jiangsu Yahong Meditech Co., Ltd., priority 2021, published 2025)

What was measured:
[1] = test system: dextran sulfate sodium (DSS)-induced colitis; assay: DSS-induced colitis in mice, 3.1% DSS: body weight change and DAI (Example 11); format: in vivo, C57BL/6 mice; settings: 100 mg/kg, qd
Source text: The experimental mice were housed in an SPF grade animal room for three days for adaptation, and randomly divided into 7 groups (6 model groups and 1 control group) of 10 mice in each group. Dosing of mice started on Day 0 and ended on Day 7.
The mouse enteritis model of this Example was established by DSS induction: mice in the model group were provided with a 3.1% DSS (dextran sulfate sodium, molecular weight 36,000-50,000) aqueous solution from Day 0 to Day 7, and the DSS aqueous solution was replaced with freshly prepared solution every day to prevent degradation. Mice in the normal control group were provided with normal water. The experimental period was 9 days, and the mice were euthanized and samples were collected at the experimental endpoint.
The DAI score was assessed daily. The DAI score consisted of 3 parts: body weight change, stool characteristics, and hematochezia (or occult blood) score, and the specific scoring criteria were as shown in Table 49. The DAI scoring of all mice was done by the same staff throughout the experiment.
Mice were euthanized at the experimental endpoint. The colon of mice was dissected, and photograph was taken, the length was measured, and the contents were removed before weighing.
The data were expressed as mean±standard error (X±s). Body weight change and disease activity score were statistically analyzed by two-way ANOVA and comparison between groups were performed by Dunnett's test. Other data were statistically analyzed by one-way ANOVA and comparison between groups were performed by Dunnett's test. All analyses were performed using GraphPad Prism software. * P<0.05, ** P<0.01, *** P<0.005, **** P<0.0001 vs. solvent group.

[2] = test system: bleomycin-induced skin fibrosis; assay: Bleomycin-induced skin fibrosis in mice: skin histopathology (dermal thickness, capillary density score, inflammatory cell infiltration score); format: in vivo, male C57BL/6 mice; settings: 50 mg/kg PO BID, 28 days
Protocol: The skin tissue of the lesioned skin was subjected to dehydration, embedding and sectioning according to the pathology SOP, and the tissue was stained by HE and Masson staining. Histopathological analysis was performed according to the following methods:
Masson-stained sections were panoramically scanned by using Nanozomer S210 and the scanned images were subjected to quantitative analysis using Visiopharm VIS6.0 software. The degree of fibrosis was currently represented by the dermal thickness after Masson staining.
The fields of observation was selected in the dermis layer of the lesioned area (the number of fields selected was determined according to the size of the lesioned area) and scored according to the area occupied by capillaries in the area: • 0: No capillary formed • 1: The proportion of capillaries formed was less than 25%; • 2: The proportion of capillaries formed was 25-50%; • 3: The proportion of capillaries formed was 50-75%; • 4: The proportion of capillaries formed was greater than 75%. 3.8.3 Inflammatory cell infiltration score of dermis layer
The fields of observation was selected in the dermis layer of the lesioned area (the number of fields selected was determined according to the size of the lesioned area) and scored according to the degree of inflammatory cell infiltration: • 0: No inflammatory cell infiltration: • 1: A small amount of focal inflammatory cell infiltration; • 2: Scattered diffuse inflammatory cell infiltration: • 3: A large amount of diffuse inflammatory cell infiltration; • 4: A large amount of agglomerated inflammatory cell infiltration.

norepinephrine level = settings: cited from earlier work
[3] = test system: dextran sulfate sodium (DSS)-induced colitis; assay: DSS-induced colitis in mice: body weight, DAI score, colon density (Examples 1, 3); format: in vivo, C57BL/6J mice; settings: for Colon density: experimental endpoint
Protocol: 8-10 week old female C57BL/6J mice purchased from Charles River Laboratories were used. The mice were housed in a room at constant temperature (20+2° C.) (5 mice per cage) with a 12-hour light-dark cycle. All protocols were approved by the Institutional Animal Care and Use Committee of WuXi AppTec. These mice were adapted to the housing conditions at the animal experiment center of WuXi AppTec for at least three days prior to the experiment. […] At the experimental endpoint (see hereinafter), mice were euthanized and endpoint samples were obtained. Mice in the normal group were not given 3% DSS aqueous solution to induce colitis and were free to drink blank water. […] The animal body weight and DAI score were assessed under double-blind conditions, that is, the researchers collected the body weight data of mice and observed and scored the stool characteristics and blood stools every day, without knowing the group and dosing regimen. The DAI score was the sum of the weight loss score, stool score and bleeding score. […] The data were analyzed by analysis of variance, specifically by using the following process: using Graph Pad Prism 6.0 software to carry out post-hoc Dunnett's multiple comparison test. […] Data were expressed as mean±S.E.M. The experimental endpoint was 24 hours after administration on Day 8 for the positive drug control group and the Test group 1 #to Test group 7 #of Example 1; the experimental endpoint of the normal group and the solvent group was the same as that of the positive drug control group and Test group 1 #to Test group 7 #.

[4] = test system: systolic and diastolic blood pressure; settings: 200 mg, phase II clinical study, cited from earlier work
[5] = test system: imiquimod (IMQ)-induced psoriasis; assay: Imiquimod (IMQ)-induced psoriasis in mice: erythema, scales, thickness, total score, AUC (Example 8); format: in vivo, Balb/c mice; set-up: key to erythema score / scales score / thickness score: 0 = none, 1 = mild, 2 = moderate, 3 = obvious/severe; key to total score of erythema + scales + thickness: sum of three 0-3 scores (erythema + scales + thickening), 0-9; settings: for erythema score / scales score: BID × 2 days; for thickness score / total score of erythema + scales + thickness: positive control group
Protocol: All mice were shaved with a pet shaver to get an area of 2×3 cm on the back one day before the start of the experiment.
65 animals were randomly divided into groups according to body weight, and the dosing regimen was as follows.
Imiquimod (IMQ) cream: 62.5 mg of IMQ cream for each mouse in G2 to G7; Dexamethasone (DEX) ointment: 70 mg of ointment for each mouse in G4;
Tofacitinib: Tofacitinib was dissolved in dimethyl sulfoxide to 5 mg/mL, and 50 μL was added to IMQ cream for daily treatment.
Mice in Groups 2 to 7 received daily topical doses of 62.5 mg of IMQ cream on their shaved back from Day 0 to Day 7.
Dosing of the test compounds and reference substance was carried out according to Table 29 for 7 consecutive days.
To assess the severity of inflammation of skin on the back, the skin on the back was scored according to Table 30. Erythema, scales and thickening were scored independently on a scale of 0 to 3, 0, none; 1. mild; 2. moderate; 3. obvious/severe.
The inhibition rate was calculated according to the following formula: Inhibition rate=[AUC (solvent)−AUC (treatment)]/AUC (solvent)×100%. Wherein, solvent referred to the solvent group corresponding to the route of administration.

[6] = rats with spontaneous hypertension
[7] = Day 0, 12.5 mg/kg topical QD × 5 days
[8] = Day 1, 12.5 mg/kg topical QD × 5 days
[9] = Day 2, 12.5 mg/kg topical QD × 5 days
[10] = Day 3, 12.5 mg/kg topical QD × 5 days
[11] = Day 4, 12.5 mg/kg topical QD × 5 days
[12] = Day 5, 12.5 mg/kg topical QD × 5 days
[13] = Day 6, 12.5 mg/kg topical QD × 5 days
[14] = Day 7, 12.5 mg/kg topical QD × 5 days

O=C(O)/C=C/C(=O)O [Fumaric acid]
symptoms caused by DSS-induced colitis (diarrhea, hematochezia) [1]: slightly ameliorate the symptoms of diarrhea and hematochezia
DSS-induced body weight loss ([1]; vs solvent group): showed a trend of alleviating DSS-induced body weight loss
disease activity score (DAI) ([1]; vs solvent group, relatively obvious on Day 4 and Day 5): slightly improved

COC(=O)c1ccc2c(c1)NC(=O)/C2=C(\Nc1ccc(N(C)C(=O)CN2CCN(C)CC2)cc1)c1ccccc1 [Nintedanib]
inflammatory cell infiltration of the lesioned skin [2]: visibly reduce
subdermal capillary hyperplasia [2]: visibly reduce

NCCc1c[nH]c(=S)n1[C@H]1COc2c(F)cc(F)cc2C1 [Etamicastat]
brain-blood-barrier penetration (norepinephrine level; compared with Nepicastat): lower levels of brain-blood-barrier penetration
effect on brain tissue (norepinephrine level) (norepinephrine level; [6]): no effect on brain tissue
norepinephrine level in peripheral sympathetic innervation tissues (norepinephrine level; [6]): reduce the norepinephrine level in peripheral sympathetic innervation tissues
Body weight on Day 7, g ([3]; 10 mg/kg PO QD × 8 days): 19.18 g
Body weight on Day 7/initial body weight, % ([3]; 10 mg/kg PO QD × 8 days): 91.92%
Body weight on Day 8, g ([3]; 10 mg/kg PO QD × 8 days): 18.20 g
Body weight on Day 8/initial body weight, % ([3]; 10 mg/kg PO QD × 8 days): 87.27%
DAI score on Day 8 ([3]; 10 mg/kg PO QD × 8 days): 6.20
Body weight on Day 7, g ([3]; 30 mg/kg PO QD × 8 days): 19.48 g
Body weight on Day 7/initial body weight, % ([3]; 30 mg/kg PO QD × 8 days): 92.19%
Body weight on Day 8, g ([3]; 30 mg/kg PO QD × 8 days): 18.89 g
Body weight on Day 8/initial body weight, % ([3]; 30 mg/kg PO QD × 8 days): 89.13%
DAI score on Day 8 ([3]; 30 mg/kg PO QD × 8 days): 6.56
Body weight on Day 7, g ([3]; 100 mg/kg PO QD × 8 days): 20.08 g
Body weight on Day 8, g ([3]; 100 mg/kg PO QD × 8 days): 19.19 g
Body weight on Day 8/initial body weight, % ([3]; 100 mg/kg PO QD × 8 days): 91.63%
DAI score on Day 8 ([3]; 100 mg/kg PO QD × 8 days): 5.00
severity of DSS-induced colitis and disease activity ([3]; Nepicastat 30, Etamicastat 100, Zamicastat 100 mg/kg PO QD × 8 days (Test groups 1#, 4#, 7#) vs solvent group): ameliorated the severity of DSS-induced colitis and reduced disease activity
Colon density ([3]; 10 mg/kg PO QD × 8 days): 32.24 mg/cm
Colon density ([3]; 30 mg/kg PO QD × 8 days): 34.23 mg/cm
tolerance and safety ([4]; 10 days of treatment): good tolerance and safety
systolic and diastolic blood pressure ([4]; after 10 days of treatment): reduced systolic and diastolic blood pressure in a dose-dependent manner

C[C@@H]1CCN(C(=O)CC#N)C[C@@H]1N(C)c1ncnc2[nH]ccc12 [Tofacitinib]
efficacy on clinical score ([5]; 12.5 mg/kg topical QD × 5 days, then BID × 2 days): showed efficacy after doubling the dose
erythema score [5, 7]: 0
scales score [5, 7]: 0
thickness score ([5]; Day 0): 0
total score of erythema + scales + thickness ([5]; Day 0): 0
erythema score [5, 8]: 0
scales score [5, 8]: 0
thickness score ([5]; Day 1): 0.8
total score of erythema + scales + thickness ([5]; Day 1): 0.8
erythema score [5, 9]: 1.4
scales score [5, 9]: 0
thickness score ([5]; Day 2): 1.4
total score of erythema + scales + thickness ([5]; Day 2): 2.8
erythema score [5, 10]: 1.9
scales score [5, 10]: 0.4
thickness score ([5]; Day 3): 2.2
total score of erythema + scales + thickness ([5]; Day 3): 4.5
erythema score [5, 11]: 2.2
scales score [5, 11]: 0.7
thickness score ([5]; Day 4): 2
total score of erythema + scales + thickness ([5]; Day 4): 4.9
erythema score [5, 12]: 2
scales score [5, 12]: 1.4
thickness score ([5]; Day 5): 2.2
total score of erythema + scales + thickness ([5]; Day 5): 5.6
erythema score [5, 13]: 1.8
scales score [5, 13]: 1.3
thickness score ([5]; Day 6): 2
total score of erythema + scales + thickness ([5]; Day 6): 5.1
erythema score [5, 14]: 1.7
scales score [5, 14]: 1.6
thickness score ([5]; Day 7): 1.9
total score of erythema + scales + thickness ([5]; Day 7): 5.2
